Results on 24 compounds are retold here after patent publication US10889611B2, “Sialyltransferase inhibitors and uses thereof” (Academia Sinica, priority 2015, dated 2021).

Each structure is given as a SMILES string.

The target in data set [1] is T1, α2,6(N)-sialyltransferases ST6GALI (Homo sapiens, UniProt P15907).
T1 construct: purchased RnDSystems.com (R&D Systems)
T1 sequence (P15907 1-406): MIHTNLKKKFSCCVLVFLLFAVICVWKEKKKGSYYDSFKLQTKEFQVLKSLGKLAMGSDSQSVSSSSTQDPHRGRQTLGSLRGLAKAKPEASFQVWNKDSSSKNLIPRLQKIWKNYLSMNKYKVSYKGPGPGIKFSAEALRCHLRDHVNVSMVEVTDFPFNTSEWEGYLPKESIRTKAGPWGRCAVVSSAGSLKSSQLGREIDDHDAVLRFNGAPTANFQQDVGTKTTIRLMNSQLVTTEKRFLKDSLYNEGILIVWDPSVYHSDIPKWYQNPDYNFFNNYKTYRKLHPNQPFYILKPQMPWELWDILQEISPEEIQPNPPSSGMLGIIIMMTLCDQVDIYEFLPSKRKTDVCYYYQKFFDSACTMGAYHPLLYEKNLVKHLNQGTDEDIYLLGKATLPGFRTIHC
Kind of data set: Sialyltransferase inhibition assay, ST6GALI (reverse-phase HPLC). The format is biochemical. The following applies: for IC50: IC50 (μM) ST6GALI, α2,6-N-link. How it is done:
(§1) The enzymes analyzed in the present study included rat ST3Gal(I), rat ST3Gal(III), and human ST6Gal(I). Rat ST3Gal(I) and rat ST3Gal(Ill), were purchased from Calbiochem®, while human ST6Gal(I) was purchased from RnDSystems.com.
(§2) Sialyltransferase inhibition assay (α2,6-N-ST) was performed as follows: Sialyltransferase activity was determined by measuring the level of the end product of sialylated saccharides with reverse-phase HPLC. The assay mixtures contained the following components: 200 mM MES buffer; 100 mM NaCl; 0.5 mM EDTA; 0.01% Triton X-100; 1.4 mU ST6GALI; 25 μM Galβ1-4GlcNAc; 1 mM CMP-Neu5Ac and different concentration of Sialyltransferase inhibitors to a total volume of 50 μl. The assay mixture was incubated at 37° C. for 15 mins and then quenched by heating up to 101° C. for 10 mins. The sialylated product is resolved with reversed-phase HPLC. Kinetic data were obtained by fitting the initial rate data to the nonlinear regression equation.
(§3) Effects of the present compounds on the activity of sialyltransferase, including α2,3(N)-sialyltransferase ST3GALIII, α2,6(N)-sialyltransferases ST6GALI, and α2,3(O)-sialyltransferase ST3GALI, were determined in accordance with procedures described in the “Materials and Methods” section, and results are summarized in Table 1.

In data set [2] the target is T2, α2,3(O)-sialyltransferase ST3GALI (Rattus norvegicus, UniProt Q6H8N0).
T2 construct: purchased Calbiochem
T2 sequence (Q6H8N0 1-340): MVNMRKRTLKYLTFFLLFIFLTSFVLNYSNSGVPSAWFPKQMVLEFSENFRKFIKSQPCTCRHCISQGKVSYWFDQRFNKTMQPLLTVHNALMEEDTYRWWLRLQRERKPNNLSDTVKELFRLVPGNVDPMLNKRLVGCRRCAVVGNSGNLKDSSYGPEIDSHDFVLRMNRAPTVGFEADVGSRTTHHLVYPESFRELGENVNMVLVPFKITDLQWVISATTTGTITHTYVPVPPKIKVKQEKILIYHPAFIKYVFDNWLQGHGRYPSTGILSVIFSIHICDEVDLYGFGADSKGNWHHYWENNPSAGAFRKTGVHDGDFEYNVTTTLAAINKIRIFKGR
In words: Sialyltransferase inhibition assay, ST3GALI (reverse-phase HPLC). The format is biochemical. The following applies: measured at 500 μM; read-out: ST3GALI inhibition percentage. Here is the method:
as §1
as §2, with “mU ST3GALI; 2.5 mM T-antigen;” for “mU ST6GALI; 25 μM Galβ1-4GlcNAc;”, “to 101′C” for “to 101° C.”, “product was” for “product is”, “resolved by” for “resolved with”
as §3

For `C[C@H](Nc1ccc([N+](=O)[O-])c2nonc12)C(=O)N[C@@H]1CC[C@]2(C)C3CC[C@@]4(C)C(CCC4[C@H](C)CCC(=O)OCCOCCOCCN=[N+]=[N-])C3CC[C@@H]2C1` (some centres unmarked), the melting point – broadly, the temperature of the solid-liquid transition – lay in the range of 69 to 70 °C.
`C[C@H](CCC(=O)OCCOCCOCCN=[N+]=[N-])C1CCC2C3CC[C@@H]4C[C@H](NC(=O)[C@H](CS)Nc5ccc([N+](=O)[O-])c6nonc56)CC[C@]4(C)C3CC[C@@]21C` (some centres unmarked) came in with a melting point of 68 to 69 °C.
Still for that read-out and setting: to `C[C@H](CCC(=O)OCCOCCOCCN=[N+]=[N-])C1CCC2C3CC[C@@H]4C[C@H](NC(=O)[C@H](CSC(C)(C)C)Nc5ccc([N+](=O)[O-])c6nonc56)CC[C@]4(C)C3CC[C@@]21C` (some centres unmarked) belongs 64 to 65 °C; to `C[C@H](CCC(=O)OCCOCCOCCN=[N+]=[N-])C1CCC2C3CC[C@@H]4C[C@H](NC(=O)[C@H](CCC(=O)O)Nc5ccc([N+](=O)[O-])c6nonc56)CC[C@]4(C)C3CC[C@@]21C` (some centres unmarked), 77 to 78 °C; to `C[C@H](CCC(=O)OCCOCCOCCN=[N+]=[N-])C1CCC2C3CC[C@@H]4C[C@H](NC(=O)[C@H](CCCCN)Nc5ccc([N+](=O)[O-])c6nonc56)CC[C@]4(C)C3CC[C@@]21C` (some centres unmarked), 84 to 85 °C.
The same measure, in the same setting: to `C[C@H](CCC(=O)OCCOCCOCCN=[N+]=[N-])C1CCC2C3CC[C@@H]4C[C@H](NC(=O)[C@H](CCCNC(=N)N)Nc5ccc([N+](=O)[O-])c6nonc56)CC[C@]4(C)C3CC[C@@]21C` (some centres unmarked) belongs 78 to 79 °C; to `C[C@H](CCC(=O)OCCOCCOCCN=[N+]=[N-])C1CCC2C3CC[C@@H]4C[C@H](NC(=O)[C@H](Cc5ccc(O)cc5)Nc5ccc([N+](=O)[O-])c6nonc56)CC[C@]4(C)C3CC[C@@]21C` (some centres unmarked), 72 to 73 °C; to `C[C@H](CCC(=O)OCCOCCOCCN=[N+]=[N-])C1CCC2C3CC[C@@H]4C[C@H](NC(=O)[C@H](Cc5ccccc5)Nc5ccc([N+](=O)[O-])c6nonc56)CC[C@]4(C)C3CC[C@@]21C` (some centres unmarked), 65 to 66 °C.
With `C[C@H](CCC(=O)OCCOCCOCCN=[N+]=[N-])C1CCC2C3CC[C@@H]4C[C@H](NC(=O)[C@H](Cc5c[nH]c6ccccc56)Nc5ccc([N+](=O)[O-])c6nonc56)CC[C@]4(C)C3CC[C@@]21C` (some centres unmarked), the melting point was in the range of 86 to 87 °C.
Still for that read-out and setting: the result for `C[C@H](CCC(=O)OCCOCCOCCN=[N+]=[N-])C1CCC2C3CC[C@@H]4C[C@H](NC(=O)C5CCCN5c5ccc([N+](=O)[O-])c6nonc56)CC[C@]4(C)C3CC[C@@]21C` (some centres unmarked) reads 62 to 64 °C.
On the same count and under the same terms, to `C[C@H](CCC(=O)O)C1CCC2C3CC[C@@H]4C[C@H](Nc5ccc([N+](=O)[O-])c6nonc56)CC[C@]4(C)C3CC[C@@]21C` (some centres unmarked) belongs 137 to 139 °C; to `C[C@H](CCC(=O)O)C1CCC2C3CC[C@@H]4C[C@H](Nc5ccc6ccccc6n5)CC[C@]4(C)C3CC[C@@]21C` (some centres unmarked), 140 to 142 °C; to `C[C@H](CCC(=O)O)C1CCC2C3CC[C@@H]4C[C@H](NC5=C(Cl)C(=O)c6ccccc6C5=O)CC[C@]4(C)C3CC[C@@]21C` (some centres unmarked), 120 to 122 °C.
Still for that read-out and setting: the result for `COc1cc2nc(Cl)nc(N[C@@H]3CC[C@]4(C)C5CC[C@@]6(C)C(CCC6[C@H](C)CCC(=O)O)C5CC[C@@H]4C3)c2cc1OC` (some centres unmarked) reads 178 to 180 °C; that for `C[C@H](CCC(=O)O)C1CCC2C3CC[C@@H]4C[C@H](Nc5nc6ccccc6nc5Cl)CC[C@]4(C)C3CC[C@@]21C` (some centres unmarked), 118 to 120 °C; that for `C[C@H](CCC(=O)O)C1CCC2C3CC[C@@H]4C[C@H](NS(=O)(=O)c5c(Cl)ccc6nonc56)CC[C@]4(C)C3CC[C@@]21C` (some centres unmarked), 128 to 130 °C.
Compound `C[C@H](CCC(=O)O)C1CCC2C3CC[C@@H]4C[C@H](NS(=O)(=O)c5cccc6c(N(C)C)cccc56)CC[C@]4(C)C3CC[C@@]21C` (some centres unmarked) came in with a melting point of 136 to 138 °C.
`C[C@H](CCC(=O)O)C1CCC2C3CC[C@@H]4C[C@H](NS(=O)(=O)c5cc6ccccc6s5)CC[C@]4(C)C3CC[C@@]21C` (some centres unmarked) had a melting point of 132 to 134 °C.
In turn, `C[C@H](CCC(=O)O)C1CCC2C3CC[C@@H]4C[C@H](NS(=O)(=O)c5cccc6cccnc56)CC[C@]4(C)C3CC[C@@]21C` (some centres unmarked) showed a melting point of 138 to 140 °C.
Same read-out and setting: to `C[C@H](CCC(=O)O)C1CCC2C3CC[C@@H]4C[C@H](NC(=O)[C@H](CC(=O)O)Nc5ccc([N+](=O)[O-])c6nonc56)CC[C@]4(C)C3CC[C@@]21C` (some centres unmarked) belongs 134 to 136 °C; to `C[C@H](CCC(=O)O)C1CCC2C3CC[C@@H]4C[C@H](NC(=O)[C@@H](N)CC(=O)O)CC[C@]4(C)C3CC[C@@]21C` (some centres unmarked), 158 to 160 °C.
Take `C[C@H](CCC(=O)OCCOCCN=[N+]=[N-])C1CC[C@H]2[C@@H]3CC[C@@H]4C[C@H](OC(=O)[C@H](CC(=O)O)Nc5ccc([N+](=O)[O-])c6nonc56)CC[C@]4(C)[C@H]3CC[C@]12C` (stereo partly drawn) [Compound 2, (3S)-4-(((3R,5R,8R,9S,10S,13R,14S)-17-((R)-5-(2-(2-azidoethoxy)ethoxy)-5-oxopentan-2-yl)-10,13-dimethylhexadecahydro-1H-cyclopenta[a]phenanthren-3-yl)oxy)-3-((7-nitrobenzo[c][1,2,5]oxadiazol-4-yl)amino)-4-oxobutanoic acid]: the melting point is 75 to 76 °C. Besides, the IC50 (as a rule, the concentration needed to halve the response being measured) in data set [1] fell in the range of 3 to 7 µM.
As to `C[C@H](CCC(=O)OCCOCCOCCOCCN=[N+]=[N-])C1CC[C@H]2[C@@H]3CC[C@@H]4C[C@H](OC(=O)[C@H](CC(=O)O)NC(=O)c5ccc([N+](=O)[O-])cc5)CC[C@]4(C)[C@H]3CC[C@]12C` (stereo partly drawn) [Compound 9, (3S)-4-(((3R,5R,8R,9S,10S,13R,14S)-17-((R)-1-azido-13-oxo-3,6,9,12-tetraoxaheptadecan-16-yl)-10,13-dimethylhexadecahydro-1H-cyclopenta[a]phenanthren-3-yl)oxy)-3-(4-nitrobenzamido)-4-oxobutanoic acid], in data set [1], the “selectivity ratio ST3GALI/ST6GALI” value is greater than 88 and it took 5.7 ± 0.36 µM to reach half-maximal inhibition (IC50). In addition, the inhibition (commonly the drop in the measured response relative to a control, in per cent) at 500 µM in data set [2] amounted to 0%.
For `C[C@H](CCC(=O)OCCOCCOCCOCCOCCN=[N+]=[N-])C1CC[C@H]2[C@@H]3CC[C@@H]4C[C@H](OC(=O)[C@H](CC(=O)O)NC(=O)c5ccc([N+](=O)[O-])cc5)CC[C@]4(C)[C@H]3CC[C@]12C` (stereo partly drawn) [Compound 10, (3S)-4-(((3R,5R,8R,9S,10S,13R,14S)-17-((R)-1-azido-16-oxo-3,6,9,12,15-pentaoxaicosan-19-yl)-10,13-dimethylhexadecahydro-1H-cyclopenta[a]phenanthren-3-yl)oxy)-3-(4-nitrobenzamido)-4-oxobutanoic acid], in that order: greater than 67, 7.45 ± 0.36 µM and 0%.
